Results taken from BindingDB's records for doi:10.1016/j.bmc.2019.115177 (National Centre For Scientific Research "Demokritos, 2019).

Key:
[1] = target: Insulin-regulated aminopeptidase (Homo sapiens); test: Inhibition of human recombinant IRAP expressed in baculovirus infected Sf9 cells using omniMMP fluorogenic substrate incubated for 5 to 10 mins by fluorescence spectrophotometry analysis
[2] = target: Insulin-regulated aminopeptidase (Homo sapiens); test: Competitive inhibition of human recombinant IRAP expressed in baculovirus infected sf9 cells using L-AMC as substrate incubated for 5 to 10 mins by Michaelis-Menten analysis

| Compound | IC50 [1] [µM] | Ki [2] [µM] |
| --- | --- | --- |
| CCCC[C@H](N)C(=O)Nc1ccc(C(=O)N[C@@H](Cc2c[nH]c3ccccc23)C(=O)OCc2ccccc2)cc1 | > 10 |  |
| CCCC[C@H](N)C(=O)Nc1cccc(C(=O)N[C@@H](Cc2c[nH]c3ccccc23)C(=O)OCc2ccccc2)c1 | 6.2 | 3.2 |
| N[C@@H](CCc1ccccc1)C(=O)NNc1ccc(C(=O)N[C@@H](Cc2c[nH]c3ccccc23)C(=O)OCc2ccccc2)cc1 | 2.5 |  |
| CCCC[C@H](N)C(=O)NNc1cccc(C(=O)N[C@@H](Cc2c[nH]c3ccccc23)C(=O)OCc2ccccc2)c1 | 7.2 | 3.8 |
| CCCC[C@H](N)C(=O)NNc1ccc(C(=O)N[C@@H](Cc2c[nH]c3ccccc23)C(=O)OCc2ccccc2)cc1 | 2.5 | 1.3 |
| CCCC[C@H](N)C(=O)Nc1cc(C(=O)N[C@@H](Cc2c[nH]c3ccccc23)C(=O)OCc2ccccc2)ccn1 | 8.8 | 4.6 |

Second part, the compound after the results:

| IC50 [1] [µM] | Ki [2] [µM] | Compound |
| --- | --- | --- |
| 16.7 | 8.7 | COc1cccn(CC(=O)NCCc2ccc(-c3ccccc3)cc2)c1=S |
| 10.9 | 5.7 | O=C(Cn1cccc(O)c1=O)N[C@@H](Cc1c[nH]c2ccccc12)C(=O)OCc1ccccc1 |
| 33.6 | 17.6 | CC(C)[C@H](NC(=O)Cn1cccc(O)c1=O)C(=O)OCc1ccccc1 |
| 24.8 | 13 | O=C(Cn1cccc(O)c1=O)NCCc1ccc(-c2ccccc2)cc1 |
